Measurements reported in the supplement of paper PMC10307832.

Key:
Experiment in all cases: relative viability (nuclei count vs DMSO), 5 days (fraction); higher = more cells survive
[1] = compound: C[C@]1(c2nc3c(C(N)=O)cccc3[nH]2)CCCN1 [Veliparib] + Nc1ncn([C@H]2C[C@H](O)[C@@H](CO)O2)c(=O)n1 [Decitabine] (partner 2 µM)
Procedure, shortened: (§1)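 Lung cancer cell lines, seeded in 1536-well plates, were treated the following day by pin tool with a single drug or with five library-drug doses (not always all listed) in √10 steps on top of a fixed anchor-drug dose. Cells were fixed and nuclei stained in one step after 5 days, and nuclei were counted. Relative viability is the nuclei count for treated wells divided by that for vehicle wells, reported as medians of duplicate plates.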

[2] = compound: C[C@]1(c2nc3c(C(N)=O)cccc3[nH]2)CCCN1 [Veliparib] + CC(=O)c1c(C)c2cnc(Nc3ccc(N4CCNCC4)cn3)nc2n(C2CCCC2)c1=O [Palbociclib] (partner 0.5 µM)
Procedure, shortened: as §1

[3] = compound: COC1=CC=C(C=C1)CN2C=CC3=C2C=C(C=C3)C(=O)NO + C[C@@H](Oc1cc(-c2cnn(C3CCNCC3)c2)cnc1N)c1c(Cl)ccc(F)c1Cl [Crizotinib] (partner 1 µM)
Procedure, shortened: as §1

[4] = compound: COC1=CC=C(C=C1)CN2C=CC3=C2C=C(C=C3)C(=O)NO + C[C@]1(O)C[C@@H](c2nc(-c3ccc4ccc(-c5ccccc5)nc4c3)c3c(N)nccn32)C1 [Linsitinib] (partner 1 µM)
Procedure, shortened: as §1

| Cell Line | relative viability ([1]; first compound 0.02 µM) | relative viability ([1]; first compound 0.06325 µM) | relative viability ([1]; first compound 0.2 µM) | relative viability ([1]; first compound 0.6325 µM) | relative viability ([1]; first compound 2 µM) | relative viability ([2]; first compound 0.06325 µM) | relative viability ([2]; first compound 0.2 µM) | relative viability ([2]; first compound 0.6325 µM) | relative viability ([2]; first compound 2 µM) | relative viability ([3]; first compound 0.08 µM) | relative viability ([3]; first compound 0.253 µM) | relative viability ([3]; first compound 0.8 µM) | relative viability ([3]; first compound 2.53 µM) | relative viability ([3]; first compound 8 µM) | relative viability ([4]; first compound 0.08 µM) | relative viability ([4]; first compound 0.253 µM) | relative viability ([4]; first compound 0.8 µM) | relative viability ([4]; first compound 2.53 µM) | relative viability ([4]; first compound 8 µM) | relative viability ([2]; first compound 0.02 µM) |
| --- | --- | --- | --- | --- | --- | --- | --- | --- | --- | --- | --- | --- | --- | --- | --- | --- | --- | --- | --- | --- |
| NCI-H2023 | 0.215 | 0.152 | 0.172 | 0.141 | 0.13 | 0.329 | 0.391 | 0.346 | 0.398 | 0.625 | 0.586 | 0.728 | 0.652 | 0.59 | 0.576 | 0.645 | 0.64 | 0.7 | 0.637 |  |
| NCI-H2085 | 0.519 | 0.453 | 0.486 | 0.48 | 0.498 | 0.476 | 0.477 | 0.471 | 0.479 | 0.804 | 0.944 | 0.853 | 0.928 | 0.926 | 0.794 | 0.921 | 0.931 | 0.925 | 0.934 | 0.454 |
| NCI-H2087 | 0.255 | 0.244 | 0.237 | 0.2 | 0.174 | 0.222 | 0.249 | 0.264 | 0.216 | 0.819 | 0.842 | 0.993 | 0.913 | 0.767 | 0.902 | 0.969 | 0.95 | 0.883 | 0.921 | 0.183 |
| NCI-H2126 | 0.575 | 0.561 | 0.538 | 0.545 | 0.559 | 0.357 | 0.373 | 0.33 | 0.313 | 1.02 | 1.08 | 1.04 | 1.03 | 1.06 | 0.735 | 0.754 | 0.686 | 0.737 | 0.727 | 0.357 |
| NCI-H2347 | 0.625 | 0.556 | 0.616 | 0.582 | 0.587 | 0.411 | 0.404 | 0.444 | 0.477 | 0.666 | 0.7 | 0.856 | 0.672 | 0.655 | 0.697 | 0.918 | 1.03 | 0.982 | 0.877 | 0.44 |
| NCI-H2405 | 0.742 |  | 0.653 | 0.663 | 0.693 |  | 0.569 | 0.504 | 0.503 | 0.649 | 0.865 | 0.87 | 0.925 | 0.819 | 0.66 | 0.932 | 0.915 | 0.915 | 0.794 | 0.529 |
| NCI-H3122 | 0.393 | 0.386 | 0.361 | 0.326 | 0.395 | 0.147 | 0.207 | 0.179 | 0.192 | 0.266 | 0.275 | 0.292 | 0.317 | 0.284 | 0.975 | 1.04 | 1.03 | 1 | 0.997 | 0.166 |
| PC-3 [JPC-3] | 0.766 |  | 0.85 | 0.763 | 0.741 |  | 0.493 | 0.566 | 0.543 | 0.969 | 1.02 | 1.02 | 1.05 | 0.965 | 0.963 | 0.962 | 0.97 | 1 | 1.06 | 0.54 |
